Assay results as given in the supplement of paper PMC8671470.

Experiments:
Details in all cases: 72 h
[1] = system: K-562
How it was run: (§1)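 Fifteen myeloid leukaemia lines were incubated for 72 h at 37 °C with 5% CO2 across five tenfold doses from 1 to 10,000 nM, in duplicate. ATP luminescence was normalised to vehicle and to a positive control at 10 µM and fitted with a four-parameter log-logistic model. The IC50 came from these dose–response fits.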

[2] = system: KU-812
How it was run: as §1

[3] = system: MV4-11
How it was run: as §1

[4] = system: Mono-Mac-6
How it was run: as §1

[5] = system: NOMO-1
How it was run: as §1

[6] = system: HL-60; test: cell viability (% survival relative to DMSO control); higher = less cytotoxic
How it was run: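 HL-60 cells in RPMI 1640 with 10% FBS were rescreened against the full library on 384-well plates at five tenfold concentrations, 1–10,000 nM, in duplicate. Each screen was run with DMSO or 100 nM of one of three metabolic inhibitors, for 72 h at 37 °C, 5% CO2. Viability was read by CellTiter-Glo and normalised to DMSO and 10 μM proteasome-inhibitor wells. Where given, area under the curve came from four-parameter log-logistic fits (drc, PharmacoGx).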

[7] = system: BV-173; test: cell viability (% survival relative to DMSO control, bortezomib = 0%); higher = less cytotoxic
How it was run: (§2)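 Percent survival figures are means of duplicate wells. They were obtained by CellTiter-Glo luminescence after 10 AML and 5 CML cell lines spent 72 h at 37 °C with 5% CO2 in 384-well plates with compounds at 1, 10, 100, 1000 or 10000 nM. Vehicle was set to 100% and a 10 µM positive control to 0%.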

[8] = system: HEL; test: as above
How it was run: as §2

[9] = system: HL-60; test: as above
How it was run: as §2

[10] = system: K-562; test: as above
How it was run: as §2

[11] = system: KCL-22; test: as above
How it was run: as §2

[12] = system: KG-1; test: as above
How it was run: as §2

[13] = system: KU-812; test: as above
How it was run: as §2

[14] = system: LAMA-84; test: as above
How it was run: as §2

[15] = system: ML-2; test: as above
How it was run: as §2

[16] = system: MOLM-13; test: as above
How it was run: as §2

[17] = system: MV4-11; test: as above
How it was run: as §2

[18] = system: Mono-Mac-6; test: as above
How it was run: as §2

[19] = system: NOMO-1; test: as above
How it was run: as §2

[20] = system: SHI-1; test: as above
How it was run: as §2

[21] = system: THP-1; test: as above
How it was run: as §2

O=C(O)C[C@@]1(O)C[C@@H](CCCCCCc2ccc(Cl)cc2Cl)OC1=O
Details | IC50 (cell viability) [µM]
[1] | > 10
[2] | > 10
[3] | > 10
[4] | > 10
[5] | > 10

cell viability [%], [6]
Details | 0.001 µM | 0.01 µM | 0.1 µM | 1 µM | 10 µM
co-treatment: AZD3965 100 nM | 104 | 104 | 100 | 98.7 | 95.4
co-treatment: DMSO vehicle | 102 | 105 | 97.05 | 103 | 99.13
co-treatment: GSK2194069 100 nM | 108 | 108 | 95.77 | 99.5 | 93.44
co-treatment: pictilisib 100 nM | 107 | 109.5 | 92.03 | 103 | 99.5

cell viability [%]
Details | 1 nM | 10 nM | 100 nM | 1000 nM | 10000 nM
[7] | 102 | 101 | 97.8 | 96.3 | 96.4
[8] | 110 | 118 | 99.2 | 89.2 | 95.6
[9] | 97.1 | 123 | 100 | 89.3 | 99.8
[10] | 103 | 93.6 | 105 | 102 | 96.8
[11] | 97.1 | 107 | 88.4 | 97.5 | 112
[12] | 100 | 110 | 99.4 | 112 | 97.9
[13] | 92.2 | 99.9 | 96 | 98.7 | 92.4
[14] | 99.6 | 99.8 | 92.7 | 97.3 | 96.7
[15] | 103 | 116 | 106 | 105 | 106
[16] | 102 | 103 | 110 | 103 | 110
[17] | 95.3 | 86.1 | 90.5 | 102 | 98.4
[18] | 96.3 | 111 | 102 | 92.8 | 96.3
[19] | 101 | 103 | 97.4 | 98.8 | 99.5
[20] | 99.7 | 124 | 98.4 | 102 | 96.4
[21] | 103 | 97 | 103 | 99.7 | 90.3

O=C(NCCCCCCNC(=O)ONC1=CCCCC1)ONC1=CCCCC1
Details | IC50 (cell viability) [µM]
[1] | > 10
[2] | > 10
[3] | > 10
[4] | > 10
[5] | > 10

cell viability [%], [6]
Details | 0.001 µM | 0.01 µM | 0.1 µM | 1 µM | 10 µM
co-treatment: AZD3965 100 nM | 99.5 | 99 | 99.3 | 100.9 | 98.9
co-treatment: DMSO vehicle | 97 | 99.2 | 96.8 | 102 | 97.3
co-treatment: GSK2194069 100 nM | 99.1 | 101 | 70.1 | 87.3 | 105
co-treatment: pictilisib 100 nM | 105 | 102 | 104 | 95 | 86.2

cell viability [%]
Details | 1 nM | 10 nM | 100 nM | 1000 nM | 10000 nM
[7] | 89.4 | 107 | 114 | 110 | 95.2
[8] | 90.8 | 104 | 117 | 113 | 90.9
[9] | 106 | 107 | 124 | 111 | 93.8
[10] | 97.9 | 120 | 116 | 101 | 89.5
[11] | 106 | 100 | 115 | 102 | 94.6
[12] | 90.4 | 122 | 114 | 92.8 | 90.4
[13] | 104 | 110 | 113 | 101 | 92.4
[14] | 104 | 103 | 112 | 101 | 103
[15] | 94.8 | 107 | 108 | 107 | 99.1
[16] | 118 | 97 | 109 | 98.7 | 86
[17] | 91.1 | 104 | 106 | 100 | 96.3
[18] | 90.6 | 110 | 103 | 98.8 | 102
[19] | 98.9 | 117 | 112 | 112 | 102
[20] | 98.7 | 103 | 112 | 112 | 97.3
[21] | 89.4 | 114 | 109 | 97.4 | 100

CC1(C)[C@@H](O[C@H]2O[C@H](C(=O)O)[C@@H](O)[C@H](O)[C@H]2O[C@@H]2O[C@H](C(=O)O)[C@@H](O)[C@H](O)[C@H]2O)CC[C@]2(C)[C@H]3C(=O)C=C4[C@@H]5C[C@@](C)(C(=O)O)CC[C@]5(C)CC[C@@]4(C)[C@]3(C)CC[C@@H]12 [Glycyrrhizin]
Details | IC50 (cell viability) [µM]
[1] | > 10
[2] | > 10
[3] | > 10
[4] | > 10
[5] | > 10

cell viability [%], [6]
Details | 0.001 µM | 0.01 µM | 0.1 µM | 1 µM | 10 µM
co-treatment: AZD3965 100 nM | 103 | 102 | 102 | 102.6 | 105
co-treatment: DMSO vehicle | 102 | 103 | 95.5 | 98.7 | 101
co-treatment: GSK2194069 100 nM | 102 | 100 | 105 | 110.4 | 104
co-treatment: pictilisib 100 nM | 94 | 99.5 | 99.1 | 97.7 | 103

cell viability [%]
Details | 1 nM | 10 nM | 100 nM | 1000 nM | 10000 nM
[7] | 88.9 | 109 | 117 | 95.4 | 83.4
[8] | 99.8 | 108 | 107 | 109 | 84.8
[9] | 74.5 | 101 | 113 | 103 | 98.7
[10] | 88.7 | 87.5 | 102 | 91.6 | 83.4
[11] | 89.9 | 95.3 | 105 | 99.3 | 97.2
[12] | 90 | 108 | 114 | 101 | 106
[13] | 87.4 | 92 | 107 | 99.6 | 84.3
[14] | 94.9 | 98.8 | 98.7 | 92.7 | 102
[15] | 101 | 110 | 104 | 114 | 99.5
[16] | 70.1 | 91.4 | 133 | 79.3 | 92.3
[17] | 89 | 108 | 108 | 85.3 | 102
[18] | 94.1 | 103 | 104 | 94.8 | 89
[19] | 97.5 | 107 | 103 | 100 | 93.4
[20] | 95.5 | 100 | 114 | 105 | 97.2
[21] | 92.1 | 103 | 95.8 | 98.4 | 96.2

O=C(NNc1ccccc1)c1ccncc1 [PluriSln 1]
Details | IC50 (cell viability) [µM]
[1] | 9.7
[2] | > 10
[3] | > 10
[4] | > 10
[5] | > 10

cell viability [%], [6]
Details | 0.001 µM | 0.01 µM | 0.1 µM | 1 µM | 10 µM
co-treatment: AZD3965 100 nM | 101 | 101 | 96.2 | 110 | 36
co-treatment: DMSO vehicle | 102 | 102 | 102 | 103 | 49.8
co-treatment: GSK2194069 100 nM | 103.4 | 103 | 95.8 | 104 | 91.3
co-treatment: pictilisib 100 nM | 94.1 | 107 | 83.7 | 116 | 92.411

cell viability [%]
Details | 1 nM | 10 nM | 100 nM | 1000 nM | 10000 nM
[7] | 86 | 93.5 | 97 | 104 | 82.6
[8] | 95.1 | 99.2 | 96.8 | 105 | 78.1
[9] | 102 | 94.1 | 90.5 | 109 | 20.7
[10] | 93.4 | 85.7 | 90.4 | 86.4 | 52
[11] | 89.9 | 102 | 99.7 | 110 | 41.5
[12] | 88.5 | 104 | 102 | 98.4 | 62.8
[13] | 93.3 | 93.8 | 93.2 | 102 | 92.5
[14] | 88.4 | 99.4 | 92.1 | 106 | 39.9
[15] | 93.3 | 97.6 | 92.8 | 103 | 81
[16] | 80.5 | 92 | 96.7 | 87.1 | 25.4
[17] | 92.1 | 99.2 | 99.3 | 109 | 89.4
[18] | 106 | 103 | 104 | 110 | 87.2
[19] | 91 | 101 | 91.8 | 106 | 89.6
[20] | 91.5 | 95.5 | 93 | 105 | 92.6
[21] | 97.2 | 97.1 | 100 | 108 | 95.4

Cc1coc2c1C(=O)C(=O)c1c-2ccc2c1CCCC2(C)C [Tanshinone IIA]
Details | IC50 (cell viability) [µM]
[1] | > 10
[2] | > 10
[3] | > 10
[4] | > 10
[5] | > 10

cell viability [%], [6]
Details | 0.001 µM | 0.01 µM | 0.1 µM | 1 µM | 10 µM
co-treatment: AZD3965 100 nM | 106 | 106 | 104 | 101 | 103
co-treatment: DMSO vehicle | 100.1 | 105 | 101 | 99.49 | 99
co-treatment: GSK2194069 100 nM | 106.9 | 110.7 | 105 | 101.4 | 97.5
co-treatment: pictilisib 100 nM | 95.5 | 111 | 107 | 109 | 109

cell viability [%]
Details | 1 nM | 10 nM | 100 nM | 1000 nM | 10000 nM
[7] | 91.9 | 103 | 105 | 97.3 | 87.7
[8] | 91 | 100 | 107 | 111 | 97.9
[9] | 113 | 96.6 | 95.1 | 98.7 | 79.3
[10] | 98.1 | 104 | 104 | 109 | 81.3
[11] | 114 | 98.8 | 107 | 105 | 59.9
[12] | 106 | 97.7 | 94.8 | 102 | 76.6
[13] | 89.8 | 95.2 | 93.1 | 106 | 86.2
[14] | 102 | 97.7 | 98.5 | 99.6 | 102
[15] | 106 | 111 | 103 | 101 | 77.6
[16] | 87.8 | 90.9 | 106 | 101 | 89.6
[17] | 91.9 | 100 | 93.1 | 101 | 80.3
[18] | 90.9 | 99 | 102 | 91.1 | 87.7
[19] | 103 | 104 | 102 | 102 | 91.9
[20] | 106 | 98.5 | 98.8 | 107 | 96.1
[21] | 98.4 | 110 | 104 | 92.4 | 62.5
